{"source": "patent US10059655B2", "about": "“Lipids and lipid compositions for the delivery of active agents” (priority 2013, dated 2018)", "system": "mEPO", "experiment": "Mouse EPO ELISA after IV injection of encapsulated mEPO mRNA", "type": "in vivo", "conditions": "0.2 mpk, ob/ob mice, @ 24 h", "experimental": "A rat anti-mouse Erythropoietin antibody is coated on 384-well white microtiter plates overnight, then blocked for assay. Then, plasma samples are diluted in a casein-based sample diluent and incubated on the plate with buffer controls and mouse EPO standards. The plate is then washed to remove unbound material. A biotinylated rat anti-mouse Erythropoietin antibody is then added to the plate to detect mouse EPO bound by the capture antibody. The plate is washed again and a streptavidin-conjugated horseradish peroxidase reagent is incubated on the plate. A third wash step is performed and a chemiluminescent reagent is added to the plate and immediately read by a capable plate reader using all wavelengths and a 50 millisecond integration time. Unknown samples are interpolated off the mouse EPO standard curve.", "data": [{"smiles": "CCCCC/C=C\\C/C=C\\CCCCCCCC(=O)OCC(COC(=O)CCCCCCC/C=C\\C/C=C\\CCCCC)COC(=O)C1(C)CCN(C)C1", "note": "(stereo not shown) [Example 1, (9Z,9′Z,12Z,12′Z)-2-(((1,3-dimethylpyrrolidine-3-carbonyl)oxy)methyl)propane-1,3-diyl bis(octadeca-9,12-dienoate)]", "values": [{"measurement": "Expression of protein following IV injection of encapsulated mRNA: mEPO", "value": 22.5, "unit": "ng/mL"}]}]}
